Experimental data from patent EP0987025A1, “Pharmaceitical composition or composition package containing a pyrimidine nucleoside analogue and a purine nucleoside analogue” (priority 1998, dated 2000).

How the values were obtained:
Type in all cases: in vivo, C57BL/6 mice
LP-BM5 [1] = assay: Serum IgG by ELISA (hypergammaglobulinemia) in LP-BM5 infected mice; conditions: about 4 months from infection
Procedure: Serum IgG levels were determined using an ELISA technique. Briefly, polyvinylchloride microtiter plates (Immulon I; Dynatech Laboratories, Chantilly, VA) were coated with goat anti mouse IgG (Sigma) diluted in 0.135 M sodium chloride for ≥ 24 hr. After four washes with 0.1% tween PBS (TPBS), the plates were blocked with 5% bovin serum albumin (BSA) in PBS for 1 h at 37°C and washed again with TPBS. Serial dilutions of mouse serum were added and after incubation for 1 h at 37°C, the plates were washed four times with TPBS, and 100 µl of horseradish (HRP)-conjugated goat anti-mouse IgG (Bio-Rad, Richmond, CA) was added. After 1 h incubation at 37°C, serum levels were determined using a color development solution containing 2.2 mM O-Phenylenediamine. Absorbance was measured at 492 nm on Model 2550 EIA READER (BIO-RAD). Absolute serum IgG concentrations were obtained using known concentrations of standard mouse IgG.
First, the efficacy of 2-fluoro-ara-AMP (F-araAMP, Fludara) in inhibiting murine AIDS (MAIDS), a disease characterized by a lymphoproliferative disorder (lymphadenopathy and splenomegaly), associated with severe immunodeficiency and hypergammaglobulinemia, was evaluated. The disease develops in some strains of mice (C57BL/6) that are infected with a murine leukemia virus mixture termed LP-BM5. In the first preliminary experiments (after about 4 months from infection) LP-BMS infected animals were treated with three different concentrations of F-ara-AMP: 0.065 mg/mouse, 0.325 mg/mouse, 0.650 mg/mouse. The animals of each group were treated intraperitoneally for 3 days a week and for 3 weeks. At the end of the treatment animals were killed and splenomegaly, lymphadenopathy and hypergammaglobulinemia were evaluated.

BM5d proviral DNA = assay: PCR analysis of BM5d proviral DNA in spleen, lymph node and bone marrow; conditions: for % of inhibition of BM5d proviral DNA, Bonemarrow / % of inhibition of BM5d proviral DNA, Lymphnode / % of inhibition of BM5d proviral DNA, Spleen: after 7 weeks of infection
Excerpt: The following oligonucleotide primers were used for the amplification of a 141-bp gag gene of defective virus genome (BM5d); 5' primer, 5'-AACCTTCCTCCTCTGCCA-3' (sense) corresponding to nucleotides 1456-1473 and 3' primer, 5'-ACCACCTCTCGGGCTTTC-3' (antisense) corresponding to nucleotides 1579-1596 of the BM5d genome (Chat topadhyay SK, Sengupta D.N., FredricksonT.N., Morse H.C. III, Hartley J.W., "Characteristics and contributions of defective, ecotropic and mink cell focus-inducing viruses in a retrovirus induced immunodeficiency syndrome of mice.", J..Virol. 1991; 65: 4232-41.). A second pair or oligonucleotide primers was used for amplification of 203-bp of the mouse glucose-6-phosphate dehydrogenase (G6PD) gene. This amplification served as an internal control (endogenous standard) for evaluation of the relative BM5d proviral DNA. The nucleotide primers for the amplification were as follows: 5' primer, 5'-[…]-3' (sense) and 3' primer, 5'-[…]-3' (antisense) (Kurdi-Haidar B., Mason P.J., Berrebi A., et al., "Origin and spread of the glucose-6-phosphate dehydrogenase variant (G6PD-Mediterranean) in the Middle East.", Am. J. Hum. Genet. 1990; 47:1013-19.).
Probe D30, which was derived from the 137-bp Smal-Xhol p12 gag fragment of the defective virus genome (DU5H), was kindly provided by P. Jolicoeur (Montreal, Canada) (Aziz D.C., Hanna Z., Jolicoeur P., "Severe immunodeficiency disease induced by a defective murine leukemia virus.", Nature 1989; 338: 505-08).
Total cellular DNA was isolated from the spleens, lymph nodes and bone marrow of uninfected, infected and infected/treated mice by the sodium iodide isopropanol method.
PCR amplifications were performed in a 25 µl final volume using the Perkin Elmer GeneAMP kit (1 mM MgCl2, 2.5 U AmpliTag) with 0.3 µg total cellular DNA and 20 pmol of each primer.
PCR reaction were carried out for 37 cycles at 95°C for 30 sec, 58°C for 30 sec and 72°C for 30 sec with a final extension at 72°C for 10 min.
Products were analyzed by electrophoresis on agarose gel, blotted and hybridized with either the ^32P-labeled D30 or G6PD probe.
The intensity of radiolabeled bands was analyzed and quantified in a GS-250 Molecular Imager™ (Bio-Rad, Hercules, CA, USA). For BM5d proviral DNA detection the relative integration was determined by dividing the intensity of the BM5d bands by the intensity of G6PD bands (Fraternale A., Casabianca A., Rossi L., et al., "Inhibition of murine AIDS by combination of AZT and dideoxycytidine 5'-triphosphate.", J. Acquir. Imm. Def Syndr. and Hum. Retrovir. 1996; 12:164-73). The percentages of inhibition were referred to the infected mice.

LP-BM5 [2] = assay: Histopathological examination of liver and lymph node sections; conditions: in drinking water at 15 mg/mouse
Excerpt: Samples of lymph nodes and liver from three animals in each treatment group were fixed in 4% paraformaldehyde in phosphate-buffered saline, sectioned, and stained with May Grunwald-Giemsa.

[3] = group a: 3.0 mg i.p. once a day for 5 consecutive days, 4 weeks
[4] = group b: 3.0 mg i.p. twice a day for 5 consecutive days, 4 weeks
[5] = group c: 10 mg in drinking water for 5 consecutive days, 4 weeks
[6] = group d: 15 mg in drinking water for 5 consecutive days, 4 weeks
[7] = treatment c: after 6 weeks of infection 3 mg F-ara-AMP i.p. twice a day, 5 consecutive days, 4 weeks, at 10 weeks after infection
[8] = treatment g: after 6 weeks of infection 3 mg F-ara-AMP i.p. twice a day 4 weeks, then interrupted, at 15 weeks after infection

## Nc1nc(F)nc2c1ncn2[C@@H]1O[C@H](COP(=O)(O)O)[C@@H](O)[C@@H]1O [F-ara-AMP, Fludarabine phosphate]
LP-BM5 [1]; 0.065 mg/mouse i.p. 3 days a week for 3 weeks
  Hyperg. (% inh.): 12±10%
LP-BM5 [1]; 0.325 mg/mouse i.p. 3 days a week for 3 weeks
  Hyperg. (% inh.): 16±7%
LP-BM5 [1]; 0.650 mg/mouse i.p. 3 days a week for 3 weeks
  Hyperg. (% inh.): 19±4%
BM5d proviral DNA; [3]
  % of inhibition of BM5d proviral DNA, Bonemarrow: 0%
  % of inhibition of BM5d proviral DNA, Lymphnode: 19.76±11.10 %
  % of inhibition of BM5d proviral DNA, Spleen: 25.74±17.54%
BM5d proviral DNA; [4]
  % of inhibition of BM5d proviral DNA, Bonemarrow: 22.94±7.40 %
  % of inhibition of BM5d proviral DNA, Lymphnode: 54.63±13.12 %
  % of inhibition of BM5d proviral DNA, Spleen: 39.85±16.70 %
BM5d proviral DNA; [5]
  % of inhibition of BM5d proviral DNA, Bonemarrow: 28.05±8.84 %
  % of inhibition of BM5d proviral DNA, Lymphnode: 30.33±19.67 %
  % of inhibition of BM5d proviral DNA, Spleen: 15.16±11.46%
BM5d proviral DNA; [6]
  % of inhibition of BM5d proviral DNA, Bonemarrow: 21.69±9.02 %
  % of inhibition of BM5d proviral DNA, Lymphnode: 12.16±5.48%
  % of inhibition of BM5d proviral DNA, Spleen: 27.40±8.47 %
BM5d proviral DNA; [7]
  bone marrow, BM5d proviral DNA copy number (E): 19,750±1,485 Proviral DNA molecules per 0.3 µg of total cellular DNA
  bone marrow, inhibition of BM5d (% vs. Infected) (F): 30.32±5.24 %
  lymph node, BM5d proviral DNA copy number (C): 49,500±7758 Proviral DNA molecules per 0.3 µg of total cellular DNA
  lymph node, inhibition of BM5d (% vs. Infected) (D): 77.46±3.53 %
  spleen, BM5d proviral DNA copy number (A): 37,900±15,717 Proviral DNA molecules per 0.3 µg of total cellular DNA
  spleen, inhibition of BM5d (% vs. Infected) (B): 74.27 ± 10.67 %
BM5d proviral DNA; [8]
  bone marrow, BM5d proviral DNA copy number (E): 33,900±3,736 Proviral DNA molecules per 0.3 µg of total cellular DNA
  lymph node, BM5d proviral DNA copy number (C): 180,000±8,544 Proviral DNA molecules per 0.3 µg of total cellular DNA
  lymph node, inhibition of BM5d (% vs. Infected) (D): 34.00±3.13 %
  spleen, BM5d proviral DNA copy number (A): 135,000±47,444 Proviral DNA molecules per 0.3 µg of total cellular DNA
  spleen, inhibition of BM5d (% vs. Infected) (B): 31.47±24.08%
LP-BM5 [2]
  toxicity in the liver (necrotic cells): some toxicity
